From PubChem BioAssay AID256 (DTP/NCI, 2004)
Values joined by “and” are separate entries in the source; they are usually repeats but may differ in a detail not shown here. Identical values can stand only once. Toxic doses and inconclusive results are not listed.

Tested on: CD2F1 mice, L1210 leukemia ip, survival T/C
Test: NCI In Vivo Anticancer Drug Screen. Data for tumor model L1210 Leukemia (intraperitoneal) in CD2F1 (CDF1) mice
Conditions: higher = longer survival
How it was run: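 Read-out first: treated-group measurement over vehicle-control measurement, expressed as a ratio. Animals bore a transplanted tumor line and were dosed with compound or vehicle.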

[1] = endpoint: mean survival time, dose: 100.0 mg/kg/injection, schedule: Q04DX003 (ip), vehicle: saline
[2] = endpoint: mean survival time, dose: 200.0 mg/kg/injection, schedule: Q04DX003 (ip), vehicle: saline
[3] = endpoint: mean survival time, dose: 100.0 mg/kg/injection, schedule: Q01DX009 (ip), vehicle: saline with Tween-80
[4] = endpoint: mean survival time, dose: 200.0 mg/kg/injection, schedule: Q01DX009 (ip), vehicle: saline with Tween-80
[5] = endpoint: mean survival time, dose: 100.0 mg/kg/injection, schedule: Q04DX003 (ip), vehicle: saline with Tween-80
[6] = endpoint: mean survival time, dose: 200.0 mg/kg/injection, schedule: Q04DX003 (ip), vehicle: saline with Tween-80
[7] = endpoint: mean survival time, dose: 400.0 mg/kg/injection, schedule: Q04DX003 (ip), vehicle: saline with Tween-80
[8] = endpoint: mean survival time, dose: 25.0 mg/kg/injection, schedule: Q04DX003 (ip), vehicle: saline with Tween-80
[9] = endpoint: mean survival time, dose: 50.0 mg/kg/injection, schedule: Q04DX003 (ip), vehicle: saline with Tween-80
[10] = endpoint: mean survival time, dose: 25.0 mg/kg/injection, schedule: Q04DX002 (ip), vehicle: saline with Tween-80
[11] = endpoint: mean survival time, dose: 100.0 mg/kg/injection, schedule: Q01DX001 (ip), vehicle: saline with Tween-80
[12] = endpoint: mean survival time, dose: 400.0 mg/kg/injection, schedule: Q01DX001 (ip), vehicle: saline with Tween-80

SMILES: CC(=O)c1c(C)cc2cccc(OC3OC(CO)C(O)C(O)C3O)c2c1O (stereo unspecified) (tested in a mixture with another compound)
- T/C [1]: 103 % of control
- T/C [2]: 104 % of control
- T/C (endpoint: mean survival time, dose: 400.0 mg/kg/injection, schedule: Q04DX003 (ip), vehicle: saline): 107 % of control

SMILES: N#CC(CCC(=O)O)(CCC(=O)O)c1ccccc1
- T/C [3]: 96 % of control
- T/C [4]: 96 % of control
- T/C (endpoint: mean survival time, dose: 400.0 mg/kg/injection, schedule: Q01DX009 (ip), vehicle: saline with Tween-80): 96 % of control

SMILES: O=c1c2[nH]cnc2ncn1C1CCCC1
- T/C (endpoint: mean survival time, dose: 100.0 mg/kg/injection, schedule: Q01DX001 (ip), vehicle: other): 100 % of control
- T/C (endpoint: mean survival time, dose: 200.0 mg/kg/injection, schedule: Q01DX001 (ip), vehicle: other): 100 % of control
- T/C (endpoint: mean survival time, dose: 400.0 mg/kg/injection, schedule: Q01DX001 (ip), vehicle: other): 101 % of control

SMILES: CCOc1ccc(/C=C/[N+](=O)[O-])cc1
- T/C [3]: 114 % of control
- T/C [5]: 104 % of control
- T/C [4]: 89 % of control
- T/C [6]: 98 % of control
- T/C [7]: 111 % of control

SMILES: CCOC(=O)C([NH-])CC[NH-].[Cl][Pt+2][Cl] (stereo unspecified)
- T/C (endpoint: mean survival time, dose: 12.5 mg/kg/injection, schedule: Q04DX003 (ip), vehicle: saline with Tween-80): 182 % of control
- T/C [8]: 210 % of control
- T/C [9]: 93 % of control

SMILES: Cc1cccc(OCC2=NCCN2)c1C
- T/C (endpoint: mean survival time, dose: 6.25 mg/kg/injection, schedule: Q04DX002 (ip), vehicle: saline with Tween-80): 102 % of control
- T/C (endpoint: mean survival time, dose: 12.5 mg/kg/injection, schedule: Q04DX002 (ip), vehicle: saline with Tween-80): 109 % of control
- T/C [10]: 97 % of control

SMILES: CC1CC(C)(C)C(C[NH-])C1[NH-].[Cl][Pt+2][Cl] (stereo unspecified)
- T/C (endpoint: mean survival time, dose: 3.12 mg/kg/injection, schedule: Q04DX003 (ip), vehicle: saline): 115 % of control
- T/C (endpoint: mean survival time, dose: 50.0 mg/kg/injection, schedule: Q04DX003 (ip), vehicle: saline): 261 % of control
- T/C [1]: 158 % of control and 211 % of control
- T/C [2]: 94 % of control

SMILES: N#Cc1c(NC(=S)NC2OC(COCc3ccccc3)C(OCc3ccccc3)C2OCc2ccccc2)ncn1Cc1ccccc1 (stereo unspecified)
- T/C (endpoint: mean survival time, dose: 50.0 mg/kg/injection, schedule: Q01DX009 (ip), vehicle: acetone): 94 % of control
- T/C (endpoint: mean survival time, dose: 100.0 mg/kg/injection, schedule: Q01DX009 (ip), vehicle: acetone): 98 % of control
- T/C (endpoint: mean survival time, dose: 100.0 mg/kg/injection, schedule: Q04DX003 (ip), vehicle: acetone): 91 % of control
- T/C (endpoint: mean survival time, dose: 200.0 mg/kg/injection, schedule: Q01DX009 (ip), vehicle: acetone): 93 % of control
- T/C (endpoint: mean survival time, dose: 200.0 mg/kg/injection, schedule: Q04DX003 (ip), vehicle: acetone): 91 % of control

SMILES: O=[N+]([O-])c1ccc(S(=O)(=O)OCc2ccccc2OS(=O)(=O)c2ccc([N+](=O)[O-])cc2)cc1
- T/C [8]: 109 % of control
- T/C [9]: 106 % of control
- T/C [5]: 93 % of control

SMILES: COc1cc(NC(=O)O/N=C/c2ccccn2)cc(OC)c1OC
- T/C [11]: 95 % of control
- T/C [12]: 92 % of control

SMILES: CCC1(C)CCC2(C)C(CCC3C(C)(CO)CCCC32O)C1 (stereo unspecified)
- T/C [11]: 98 % of control
- T/C (endpoint: mean survival time, dose: 200.0 mg/kg/injection, schedule: Q01DX001 (ip), vehicle: saline with Tween-80): 94 % of control
- T/C [12]: 98 % of control

SMILES: CCCCCCCCCc1ccc(OCCOCCOCCOCCOCCOCCOCCCS(=O)(=O)[O-])cc1.CCCCCCCCCc1ccc(OCCOCCOCCOCCOCCOCCOCCCS(=O)(=O)[O-])cc1.NC1CCCCC1N.[Pt+4]
- T/C (endpoint: median survival time, dose: 3.12 mg/kg/injection, schedule: Q04DX003 (ip), vehicle: saline with Tween-80): 98 % of control
- T/C (endpoint: median survival time, dose: 6.25 mg/kg/injection, schedule: Q04DX003 (ip), vehicle: saline with Tween-80): 98 % of control
- T/C (endpoint: median survival time, dose: 12.5 mg/kg/injection, schedule: Q04DX003 (ip), vehicle: saline with Tween-80): 98 % of control
- T/C (endpoint: median survival time, dose: 25.0 mg/kg/injection, schedule: Q04DX003 (ip), vehicle: saline with Tween-80): 95 % of control
- T/C (endpoint: median survival time, dose: 50.0 mg/kg/injection, schedule: Q04DX003 (ip), vehicle: saline with Tween-80): 97 % of control
- T/C (endpoint: median survival time, dose: 100.0 mg/kg/injection, schedule: Q04DX003 (ip), vehicle: saline with Tween-80): 102 % of control
- T/C (endpoint: median survival time, dose: 200.0 mg/kg/injection, schedule: Q04DX003 (ip), vehicle: saline with Tween-80): 103 % of control

SMILES: CCCCCCCCCCCC[N+]1(C)CCC[N+](C)(CCCCCCCCCCCC)CC1 (stereo unspecified)
- T/C (endpoint: mean survival time, dose: 18.7 mg/kg/injection, schedule: Q01DX001 (ip), vehicle: saline with Tween-80): 116 % of control
- T/C (endpoint: mean survival time, dose: 37.5 mg/kg/injection, schedule: Q01DX001 (ip), vehicle: saline with Tween-80): 98 % of control
- T/C (endpoint: mean survival time, dose: 75.0 mg/kg/injection, schedule: Q01DX001 (ip), vehicle: saline with Tween-80): 113 % of control and 101 % of control

SMILES: COc1ccc2c(c1)CCC1C2CCC2(C)C(=O)NC(=O)N12 (stereo unspecified)
- T/C [10]: 93 % of control
- T/C (endpoint: mean survival time, dose: 50.0 mg/kg/injection, schedule: Q04DX002 (ip), vehicle: saline with Tween-80): 86 % of control
- T/C [11]: 86 % of control
- T/C (endpoint: mean survival time, dose: 100.0 mg/kg/injection, schedule: Q04DX002 (ip), vehicle: saline with Tween-80): 86 % of control and 90 % of control
- T/C [12]: 93 % of control
- T/C (endpoint: mean survival time, dose: 400.0 mg/kg/injection, schedule: Q04DX002 (ip), vehicle: saline with Tween-80): 86 % of control

SMILES: N[C@H](C(=O)O)[C@@H]1CC(Cl)=NO1
- T/C (endpoint: mean survival time, dose: 0.5 mg/kg/injection, schedule: Q01DX009 (ip), vehicle: saline): 113 % of control
- T/C (endpoint: mean survival time, dose: 0.78 mg/kg/injection, schedule: Q01DX009 (ip), vehicle: saline): 115 % of control
- T/C (endpoint: mean survival time, dose: 1.0 mg/kg/injection, schedule: Q01DX009 (ip), vehicle: saline): 122 % of control
- T/C (endpoint: mean survival time, dose: 2.0 mg/kg/injection, schedule: Q01DX009 (ip), vehicle: saline): 124 % of control
- T/C (endpoint: mean survival time, dose: 3.0 mg/kg/injection, schedule: Q01DX009 (ip), vehicle: saline): 167 % of control
- T/C (endpoint: mean survival time, dose: 3.12 mg/kg/injection, schedule: Q01DX009 (ip), vehicle: saline): 153 % of control
- T/C (endpoint: mean survival time, dose: 6.0 mg/kg/injection, schedule: Q01DX009 (ip), vehicle: saline): 165 % of control
- T/C (endpoint: mean survival time, dose: 6.25 mg/kg/injection, schedule: Q01DX009 (ip), vehicle: saline): 151 % of control and 156 % of control
- T/C (endpoint: mean survival time, dose: 8.0 mg/kg/injection, schedule: Q01DX009 (ip), vehicle: saline): 157 % of control
- T/C (endpoint: mean survival time, dose: 12.0 mg/kg/injection, schedule: Q01DX009 (ip), vehicle: saline): 104 % of control
- T/C (endpoint: mean survival time, dose: 12.5 mg/kg/injection, schedule: Q01DX009 (ip), vehicle: saline): 118 % of control and 122 % of control
- T/C (endpoint: mean survival time, dose: 16.0 mg/kg/injection, schedule: Q01DX009 (ip), vehicle: saline): 155 % of control
- T/C (endpoint: mean survival time, dose: 25.0 mg/kg/injection, schedule: Q01DX009 (ip), vehicle: saline): 92 % of control
- T/C (endpoint: mean survival time, dose: 100.0 mg/kg/injection, schedule: Q04DX003 (ip), vehicle: water): 153 % of control
- T/C (endpoint: median survival time, dose: 0.5 mg/kg/injection, schedule: Q01DX009 (ip), vehicle: saline): 122 % of control
- T/C (endpoint: median survival time, dose: 1.0 mg/kg/injection, schedule: Q01DX009 (ip), vehicle: saline): 163 % of control
- T/C (endpoint: median survival time, dose: 2.0 mg/kg/injection, schedule: Q01DX009 (ip), vehicle: saline): 180 % of control
- T/C (endpoint: median survival time, dose: 3.0 mg/kg/injection, schedule: Q01DX009 (ip), vehicle: saline): 152 % of control
- T/C (endpoint: median survival time, dose: 4.0 mg/kg/injection, schedule: Q01DX009 (ip), vehicle: saline): 150 % of control
- T/C (endpoint: median survival time, dose: 6.0 mg/kg/injection, schedule: Q01DX009 (ip), vehicle: saline): 114 % of control and 109 % of control
- T/C (endpoint: median survival time, dose: 16.0 mg/kg/injection, schedule: Q01DX009 (ip), vehicle: saline): 123 % of control
- T/C (endpoint: median survival time, dose: 24.0 mg/kg/injection, schedule: Q01DX009 (ip), vehicle: saline): 72 % of control

SMILES: ClC(Cl)(Cl)C(c1ccccc1)c1ccccc1
- T/C (endpoint: mean survival time, dose: 50.0 mg/kg/injection, schedule: Q01DX009 (ip), vehicle: Klucel (hydroxypropylcellulose) (HPC)): 96 % of control
- T/C (endpoint: mean survival time, dose: 100.0 mg/kg/injection, schedule: Q01DX009 (ip), vehicle: Klucel (hydroxypropylcellulose) (HPC)): 93 % of control
- T/C [5]: 101 % of control
- T/C (endpoint: mean survival time, dose: 200.0 mg/kg/injection, schedule: Q01DX009 (ip), vehicle: Klucel (hydroxypropylcellulose) (HPC)): 93 % of control
- T/C [6]: 95 % of control
- T/C [7]: 90 % of control
